Measured values from patent US20240059710A1, “KRAS G12D Inhibitors” (Jacobio Pharmaceuticals Co., Ltd., priority 2020, published 2024).
Where two headings read alike, the source gives them in different places.

Legend:
[1] = target: T1, GDP-loaded HIS-KRAS (G12D, aa 1-169) (Homo sapiens, UniProt P01116, G12D); assay: SOS1 catalyzed nucleotide exchange assay; type: biochemical; settings: SOS1 ExD, TR-FRET, 4 hours at 25° C.
T1 construct: GDP-loaded HIS-KRAS (G12D, aa 1-169)
Procedure: 1. SOS1 Catalyzed Nucleotide Exchange Assay
GDP-loaded HIS-KRAS (G12D, aa 1-169) was pre-incubated with a compound in the presence of 10 nM GDP in a 384-well plate (Greiner) for 15 min, then purified SOS1 ExD (Flag tag, aa 564-1049), BODIPY™ FL GTP (Invitrogen) and MAb (monoclonal antibody) Anti 6HIS-Tb cryptate Gold (Cisbio) were added to the assay wells (Final concentration: 1.5 nM GDP-loaded HIS-KRAS (G12D), 5 nM GDP, 0.5 μM SOS1 ExD, 80 nM BODIPY™ FL GTP, 52.5 ng/mL MAb Anti 6HIS-Tb cryptate Gold) and incubated for 4 hours at 25° C. Wells containing same percent of DMSO served as vehicle control, and wells without KRAS served as low control. TR-FRET signals were read on Tecan Spark multimode microplate reader. The parameters were F486: Excitation 340 nm, Emission 486 nm, Lag time 100 μs, Integration time 200 μs; F515: Excitation 340 nm, Emission 515 nm, Lag time 100 μs, Integration time 200 μs. TR-FRET ratios for each individual wells were calculated by equation: TR-FRET ratio=(Signal F515/Signal F486)*10000. The percent of activation of compounds treated wells were normalized between vehicle control and low control (% Activation=(TR-FRET ratioCompound treated−TR-FRET ratioLow control)/(TR-FRET ratioVehicle control−TR-FRET ratioLow control)*100%). Then the data were analyzed either by fitting a 4-parameter logistic model or by Excel to calculate IC50 values.

[2] = target: T2, GppNp-loaded HIS-KRAS (G12D, aa 1-169) / cRAF RBD (Homo sapiens, UniProt P01116, G12D); assay: GTP-KRAS and cRAF interaction assay; type: binding; settings: HTRF, 2 hours at 25° C.
T2 construct: GppNp-loaded HIS-KRAS (G12D, aa 1-169)
T2 sequence (P01116 1-169 isoform P01116-2 G12D): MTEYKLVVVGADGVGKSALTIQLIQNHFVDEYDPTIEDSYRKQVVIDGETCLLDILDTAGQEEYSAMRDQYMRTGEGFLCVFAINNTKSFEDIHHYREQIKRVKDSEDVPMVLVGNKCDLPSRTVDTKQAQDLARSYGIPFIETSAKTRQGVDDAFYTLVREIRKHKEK
Procedure: 2. GTP-KRAS and cRAF Interaction Assay
GppNp-loaded HIS-KRAS (G12D, aa 1-169) was pre-incubated with a compound in the presence of 200 µM GTP in a 384-well plate (Greiner) for 15 min, then cRAF RBD (GST tag, aa 50-132, CreativeBioMart), MAb Anti GST-d2 (Cisbio) and MAb Anti 6HIS-Tb cryptate Gold (Cisbio) were added to the assay wells (Final concentration: 2.0 nM GppNp-loaded HIS-KRAS (G12D), 100 μM GTP, 35 nM cRAF RBD, 1 μg/mL MAb Anti GST-d2, 52.5 ng/mL MAb Anti 6HIS-Tb cryptate Gold) and incubated for 2 hours at 25° C. Wells containing same percent of DMSO served as vehicle control, and wells without KRAS served as low control. HTRF signals were read on Tecan Spark multimode microplate reader and HTRF ratios were calculated under manufacturer's instructions. The percent of activation of compounds treated wells were normalized between vehicle control and low control (% Activation=(HTRF ratioCompound treated−HTRF ratioLow control)/(HTRF ratioVehicle control−HTRF ratioLow control)*100). Then the data were analyzed either by fitting a 4-parameter logistic model or by Excel to calculate IC50 values.

[3] = test system: AGS cells expressing KRAS G12D; assay: Phospho-ERK1/2(THR202/TYR204) HTRF assay; type: cell-based; settings: 2 hours incubation, read-out: AGS p-ERK IC50
Procedure: AGS cells expressing KRAS G12D were cultured in F12K medium (Gibco) containing 10% fetal bovine serum (Gibco). The AGS cells in culture medium were seeded in 96-well plates at a concentration of 40,000 cells/well and then put in a 37° C./5% CO2 cell incubator to incubate overnight. The next day, culture medium was removed and the compound diluted in assay medium (F12K, 0.1% FBS) was added in each well. After 2 hours incubation in a 37° C./5% CO2 cell incubator, the assay medium in 96-well plates was removed, then 50 μL of 1× blocking reagent-supplemented lysis buffer (Cisbio) was added and the plates were incubated at 25° C. for 45 min with shaking. 10 μL of cell lysates from the 96-well plates were transferred to a 384-well plate (Greiner) containing 2.5 μL/well HTRF® pre-mixed antibodies (Cisbio 64AERPEH). Incubate 4 hours at 25° C. and then read HTRF signals on Tecan Spark multimode microplate reader. The data were analyzed using a 4-parameter logistic model to calculate IC50 values.

[4] = test system: AGS; assay: Cell growth inhibition assay (AGS); type: cell-based; settings: 6 days incubation, CellTiter-Glo
Procedure: (§1) 4. Cell Growth Inhibition Assay
AGS cultured in F12K medium (Gibco) containing 10% fetal bovine serum (Gibco). Cells in culture medium were plated in 96-well plates at a concentration of 500 cells/well ([…]) and allowed to attach overnight.
(§2) The next day, compounds were diluted in culture medium and added to the plates. After 6 days incubation in a 37° C./5% CO2 cell incubator, the cell viability was detected by CellTiter-Glo® Luminescent Cell Viability Assay kit (Promega). Luminescent signals were read on Tecan Spark multimode microplate reader and analyzed using a 4-parameter logistic model to calculate IC50 values.

[5] = test system: AsPC-1; assay: Cell growth inhibition assay (AsPC-1); type: cell-based; settings: AsPC-1, 6 days incubation, CellTiter-Glo
Procedure: as §1
AsPC-1 cultured in RPMI-1640 medium (Gibco) containing 10% fetal bovine serum (Gibco). Cells in culture medium were plated in 96-well plates at a concentration of 1000 cells/well ([…]) and allowed to attach overnight.
as §2

T1 sequence (P01116 1-169 isoform P01116-2 G12D): as above

Compound	IC50 [1]	IC50 [2]	IC50 ([3]; Homo sapiens)	IC50 ([4]; Homo sapiens, 144 h)	IC50 ([5]; Homo sapiens, ASPC1, 144 h)	IC50 [3]	IC50 [4]	IC50 [5]
C#Cc1cccc2cc(O)cc(-c3ccc4c(N5CC6CCC(C5)N6)nc(OC[C@@]56CCCN5C[C@H](F)C6)nc4c3Cl)c12 [Compound 81]	9.49 nM	225 nM	13.9 nM	16.2 nM	153 nM	–	–	–
C#Cc1c(F)ccc2cc(O)cc(-c3ccc4c(N5CC6CCC(C5)N6)nc(OC[C@@]56CCCN5C[C@H](F)C6)nc4c3F)c12 [Compound 67]	8.77 nM	20.3 nM	3.72 nM	6.92 nM	34.1 nM	–	–	–
C#Cc1cccc2cc(O)cc(-c3ccc4c(N5CC6CCC(C5)N6)nc(OCC5(CN6CCC(OC)CC6)CC5)nc4c3F)c12 [Compound 117]	17.1 nM	129 nM	10.3 nM	12.4 nM	85.6 nM	–	–	–
Oc1cc(Cl)c(C2CC2)c(-c2c(Cl)cc3c(N4CC5CCC(C4)N5)nc(OCC4(CN5CCOCC5)CC4)nc3c2F)c1 [Compound 133]	7.82 nM	688 nM	456 nM	140 nM	714 nM	–	–	–
C#Cc1cccc2cc(O)cc(-c3ccc4c(N5CC6CCC(C5)N6)nc(OCC5(CN6CCCC6)CC5)nc4c3F)c12 [Compound 116]	12.5 nM	110 nM	10.8 nM	20.8 nM	189 nM	–	–	–
C#Cc1cccc2cc(O)cc(-c3ccc4c(N5CC6CCC(C5)N6)nc(OCC5(CN6CCO[C@H](C)C6)CC5)nc4c3F)c12 [Compound 68]	14.4 nM	131 nM	4.83 nM	3.26 nM	7.8 nM	–	–	–
C#Cc1cccc2cc(O)cc(-c3c(Cl)cc4c(N5CC6CCC(C5)N6)nc(OC[C@@]56CCCN5C[C@H](F)C6)nc4c3F)c12 (single isomer, unassigned) [Compound 72B]	3.3 nM	23 nM	–	–	–	1.51 nM	4.71 nM	48.7 nM
C#Cc1cccc2cc(O)cc(-c3c(CCC#N)cc4c(N5CC6CCC(C5)N6)nc(OCC5(CN6CCOCC6)CC5)nc4c3F)c12 [Compound 44]	2.14 nM	18.2 nM	3.81 nM	13.2 nM	185 nM	–	–	–
C#Cc1cccc2cc(O)cc(-c3c(F)cc4c(N5CC6CCC(C5)N6)nc(OCC5(CN6CCOCC6)CC5)nc4c3Cl)c12 [Compound 43]	18 nM	417 nM	17.8 nM	18.3 nM	43.6 nM	–	–	–
C#Cc1cccc2cc(O)cc(-c3cc4nc(OC[C@@]56CCCN5C[C@H](F)C6)nc(N5CC6CCC(C5)N6)c4cc3C)c12 [Compound 75]	9.26 nM	84.2 nM	14.6 nM	5.64 nM	62.3 nM	–	–	–
C#Cc1c(F)ccc2cc(O)cc(-c3ccc4c(N5CC6CCC(C5)N6)nc(OCC5(CN6CCC(O)CC6)CC5)nc4c3F)c12 [Compound 76]	4.33 nM	64.8 nM	8.3 nM	72.1 nM	671 nM	–	–	–
